Measured values taken from the supplement of paper PMC10307832.

Assays:
Experiment in all cases: relative viability (nuclei count vs DMSO), 5 days (fraction); higher = more cells survive
Bexarotene + Phenformin = compound: C=C(c1ccc(C(=O)O)cc1)c1cc2c(cc1C)C(C)(C)CCC2(C)C [Bexarotene] + N=C(N)NC(=N)NCCc1ccccc1 [Phenformin] (partner 250 µM)
Outline: (§1)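 Relative viability equals treated-well nuclei counts divided by vehicle-well nuclei counts. Counts came from 4× images of lung cancer cell lines grown in 1536-well plates for 5 days after pin-tool dosing on the day after seeding. Dosing used one drug alone or a fixed anchor-drug dose plus five library-drug doses (not always all listed) in √10 steps, and values are medians of duplicate plates.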

Bexarotene + Palbociclib = compound: C=C(c1ccc(C(=O)O)cc1)c1cc2c(cc1C)C(C)(C)CCC2(C)C [Bexarotene] + CC(=O)c1c(C)c2cnc(Nc3ccc(N4CCNCC4)cn3)nc2n(C2CCCC2)c1=O [Palbociclib] (partner 0.5 µM)
Outline: as §1

Bexarotene + Pictilisib = compound: C=C(c1ccc(C(=O)O)cc1)c1cc2c(cc1C)C(C)(C)CCC2(C)C [Bexarotene] + CS(=O)(=O)N1CCN(Cc2cc3nc(-c4cccc5[nH]ncc45)nc(N4CCOCC4)c3s2)CC1 [Pictilisib] (partner 1 µM)
Outline: as §1

Bexarotene + Decitabine = compound: C=C(c1ccc(C(=O)O)cc1)c1cc2c(cc1C)C(C)(C)CCC2(C)C [Bexarotene] + Nc1ncn([C@H]2C[C@H](O)[C@@H](CO)O2)c(=O)n1 [Decitabine] (partner 2 µM)
Outline: as §1

Cell Line	relative viability (Bexarotene + Phenformin; first compound 0.08 µM)	relative viability (Bexarotene + Phenformin; first compound 0.253 µM)	relative viability (Bexarotene + Phenformin; first compound 0.8 µM)	relative viability (Bexarotene + Phenformin; first compound 2.53 µM)	relative viability (Bexarotene + Phenformin; first compound 8 µM)	relative viability (Bexarotene + Palbociclib; first compound 0.08 µM)	relative viability (Bexarotene + Palbociclib; first compound 0.253 µM)	relative viability (Bexarotene + Palbociclib; first compound 0.8 µM)	relative viability (Bexarotene + Palbociclib; first compound 2.53 µM)	relative viability (Bexarotene + Palbociclib; first compound 8 µM)	relative viability (Bexarotene + Pictilisib; first compound 0.08 µM)	relative viability (Bexarotene + Pictilisib; first compound 0.253 µM)	relative viability (Bexarotene + Pictilisib; first compound 0.8 µM)	relative viability (Bexarotene + Pictilisib; first compound 2.53 µM)	relative viability (Bexarotene + Pictilisib; first compound 8 µM)	relative viability (Bexarotene + Decitabine; first compound 0.08 µM)	relative viability (Bexarotene + Decitabine; first compound 0.253 µM)	relative viability (Bexarotene + Decitabine; first compound 0.8 µM)	relative viability (Bexarotene + Decitabine; first compound 2.53 µM)	relative viability (Bexarotene + Decitabine; first compound 8 µM)
LOU-NH91	0.687	0.673	0.595	0.6	0.49	0.544	0.507	0.485	0.528	0.551	0.546	0.537	0.508	0.492	0.505	0.854	0.841	0.833	0.773	0.717
LU99A	1.24	0.89	0.862	0.829	0.912	0.449	0.395	0.355	0.468	0.371	0.377	0.407	0.379	0.297	0.323	1.18	1	0.935	0.909	0.889
NCI-H1395	0.456	0.457	0.412	0.415	0.471	0.583	0.638	0.615	0.618	0.618	0.678	0.603	0.571	0.807	0.762	0.801	0.686	0.72	0.713	0.731
NCI-H460	0.552	0.543	0.494	0.455	0.427	0.147	0.156	0.237	0.105	0.158	0.471	0.343	0.396	0.302	0.371	0.581	0.505	0.448	0.499	0.381
201T	0.582	0.516	0.5	0.519	0.458	0.345	0.33	0.315	0.361	0.312	0.745	0.631	0.612	0.639	0.596	0.828	0.858	0.746	0.781	0.692
NCI-H1944	0.278	0.238	0.228	0.238	0.218	0.419	0.427	0.369	0.379	0.345	0.388	0.391	0.336	0.374	0.37	0.493	0.472	0.504	0.464	0.383
NCI-H2405	0.448	0.443	0.296	0.408	0.36	0.541	0.557	0.44	0.565	0.508	0.58	0.455	0.326	0.538	0.523	0.887	0.729	0.653	0.711	0.775
NCI-H1703											0.247	0.239	0.209	0.247	0.262					
NCI-H1755	0.717	0.679	0.623	0.601	0.622	0.463	0.479	0.438	0.48	0.44	0.457	0.454	0.356	0.37	0.337	0.783	0.743	0.783	0.778	0.75
